Data taken from US20230416329A1, “A PEPTIDE WITH DISULFIDE BONDS AND INHIBITORY ACTIVITY AGAINST SERINE PROTEASES, DERIVED HYBRID PEPTIDES THEREOF, AND USES THEREOF” (INSTITUTE OF MATERIA MEDICA , CHINESE ACADEMY OF MEDICAL …, priority 2020, published 2023).
Bridge positions count the residues as written; N and C are the ends. Peptide text beside a SMILES is read from it.

Target: α-chymotrypsin (Bos taurus, UniProt P00766)
Assay: Chymotrypsin inhibitory activity of peptides (AAPFpNA hydrolysis; IC50, Ki, residual activity)
Type: biochemical
Conditions: for Ki: Ki=IC50/(1+S/Km), Km 0.38 mM; for IC50: chymotrypsin 30 nM, AAPFpNA 0.5 mM
Description: The inhibition constants of various synthetic active peptide inhibitors (molecular scaffolds) against seine proteases were measured. The substrates N-succinyl-Ala-Ala-Pro-Phe-p-nitroaniline (AAPFpNA), Nα—Benzoyl-L-arginine-4-nitroaniline hydrochloride (BApNA) and N-succinyl-[…] (AAApNA) are used in competitive binding reaction to determine the inhibitory activities against α-chymotrypsin, bovine trypsin, and porcine pancreatic elastase, respectively. Experiments for α-chymotrypsin and bovine trypsin inhibition were measured in 20 mM CaCl2, 50 mM Tris-HCl buffer (pH 7.8), and that for porcine elastase inhibition was measured in 50 mM Tris-HCl buffer (pH 8.0). The concentration of the peptide was measured using optical density (OD) at 280 nm. The Michaelis constant (Km) of the enzyme hydrolysis substrate is calculated from the initial rate of substrate hydrolysis at 405 nm. The absorbance value of the substrate was measured at 405 nm after complete hydrolysis. All data were processed using nonlinear regression.
• (1) Added a total 190 μL of reaction buffer (20 mM CaCl2, 50 mM Tris-HCl (pH 7.8)) into the 96 well plate, followed by preheating at 37° C. for 15 min. Then added 2 μL of different concentrations of substrates (p-Nitroanilide, pNA, 0.5% in DMSO), and mixed by centrifugation at 500 rpm for 1 min. Finally, the plate was incubated at 37° C. for 20 min, and the absorbance value at 405 nm was measured. In the 200 μL of reaction system, the final concentrations of pNA were 0, 0.025, 0.05, 0.075, 0.1, 0.125, 0.15, 0.25, and 0.3 mM, respectively. Make three repetitions for each concentration and plot the OD405 m value with pNA concentration to obtain the standard curve. • (2) Added a total 190 μL of reaction buffer (20 mM CaCl2, 50 mM Tris-HCl (pH 7.8)) and 8 μL of 0.75 μM chymotrypsin into the 96 well plate, followed by preheating at 37° C. for 5 min. Then added 2 μL of different concentrations of substrates (AAPFpNA, dissolved in DMSO), and mixed by centrifugation at 500 rpm for 1 min. Finally, the plate was incubated at 37° C. for 20 min, and the absorbance value at 405 nm was measured. In the 200 μL of reaction system, the final concentrations of AAPFpNA were 0, 0.125, 0.25, 0.285, 0.33, 0.4, and 0.5 mM, respectively. Make three repetitions for each concentration and plot the OD405 nm value with time to obtain the corresponding curve. Divide the slope of the curve by the slope of the standard curve and the enzyme concentration to obtain the initial velocity V0 (mM/(min*mM protein). Plot the initial velocity V0 with the concentration of substrate AAPFpNA using Prism software, and the Michaelis constant Km value of chymotrypsin hydrolyzing AAPFpNA was obtained.
• (1) Added a total 190 μL of reaction buffer (20 mM CaCl2, 50 mM Tris-HCl (pH 7.8)), different concentrations of anti-chymorypsin peptides (CHs) into the pre-cold 96 well plate, followed by preheating at 37° C. for 5 min and centrifugated at 500 rpm for 1 min and allowed to stand for 4 minutes. Then added 8 μL of 750 nM chymotrypsin and incubated at 37° C. for 10 min, and centrifugated at 500 rpm for 1 min and allowed to stand for 9 minutes. Finally, added 2 μL of 50 mM AAPFpNA, and mixed by centrifugation at 500 rpm for 1 min. The plate was incubated at 37° C. for 90 min, and the absorbance value at 405 nm was measured. Three repetitions were made, and only reaction buffer and substrate were added in the blank control as the minimum absorption value (Min OD405 nm); Only reaction buffer, enzyme and substrate were added in the negative control as the maximum absorption value (Max OD405). • (2) In the 200 μL of reaction system, the final concentrations of chymotrypsin and AAPFpNA were 30 nM and 0.5 mM, respectively. • (3) Data statistics
Residual activity of enzyme (%)=(1−(Max OD405 nm−Sample OD405 nm)/(Max OD405 nm−Min OD405 nm))*100 […]

For CC[C@H](C)[C@@H]1NC(=O)[C@H](CO)NC(=O)[C@H](Cc2ccccc2)NC(=O)[C@H]([C@@H](C)O)NC(=O)[C@@H](NC(=O)[C@@H](N)CC(C)C)CSSC[C@@H](C(=O)N[C@@H](Cc2ccc(O)cc2)C(=O)NCC(=O)O)NC(=O)[C@H](CCC(N)=O)NC(=O)[C@@H]2CCCN2C(=O)[C@@H]2CCCN2C1=O [CH1] (H-LCTFSIPPQCYG-OH; disulfide 2-10; N-terminus and C-terminus assumed), the Ki was 0.46 µM, the IC50 was 1.07 µM and the “Residual activity of chymotrypsin” value (peptide 0.001 μM) was 103.5 ± 1.6%. The “Residual activity of chymotrypsin” value (peptide 0.01 μM) was 104.8 ± 7.2%, the “Residual activity of chymotrypsin” value (peptide 0.1 μM) was 93.6 ± 5.5% and the “Residual activity of chymotrypsin” value (peptide 1 μM) was 55.0 ± 3.3%. For the same compound, the “Residual activity of chymotrypsin” value (peptide 3 μM) was 26.4 ± 1.1%, the “Residual activity of chymotrypsin” value (peptide 10 μM) was 10.6 ± 0.2% and the “Residual activity of chymotrypsin” value (peptide 100 μM) was 1.2 ± 0.1%. For the same compound, the “Residual activity of chymotrypsin” value (peptide 300 μM) was 0.3 ± 0.1% and the “Residual activity of chymotrypsin” value (peptide 1000 μM) was 0.5 ± 0.1%.

CC[C@H](C)[C@@H]1NC(=O)[C@H](CO)NC(=O)[C@H](Cc2ccccc2)NC(=O)[C@H](C)NC(=O)[C@H](CC(C)C)NC(=O)[C@@H](N)CSSC[C@@H](C(=O)N[C@@H](Cc2ccc(O)cc2)C(=O)NCC(=O)O)NC(=O)[C@H](CCC(N)=O)NC(=O)[C@@H]2CCCN2C(=O)[C@@H]2CCCN2C1=O [CH2] (H-CLAFSIPPQCYG-OH; disulfide 1-10; N-terminus and C-terminus assumed) was tested, and the IC50 was over 50 µM.

CC[C@H](C)[C@@H]1NC(=O)[C@H](CO)NC(=O)[C@H](Cc2ccccc2)NC(=O)[C@H](C)NC(=O)[C@H](CC(C)C)NC(=O)CNC(=O)[C@@H](N)CSSC[C@@H](C(=O)N[C@@H](Cc2ccc(O)cc2)C(=O)NCC(=O)O)NC(=O)[C@H](CCC(N)=O)NC(=O)[C@@H]2CCCN2C(=O)[C@@H]2CCCN2C1=O [CH3] (H-CGLAFSIPPQCYG-OH; disulfide 1-11; N-terminus and C-terminus assumed) was tested, and the IC50 was over 50 µM.

With CC[C@H](C)[C@@H]1NC(=O)[C@H](CO)NC(=O)[C@H](Cc2ccc(O)cc2)NC(=O)[C@H]([C@@H](C)O)NC(=O)[C@@H](NC(=O)[C@@H](N)CO)CSSC[C@@H](C(=O)N[C@@H](Cc2ccc(O)cc2)C(=O)NCC(=O)O)NC(=O)[C@H](CCC(N)=O)NC(=O)[C@@H]2CCCN2C(=O)[C@@H]2CCCN2C1=O [CH4] (H-SCTYSIPPQCYG-OH; disulfide 2-10; N-terminus and C-terminus assumed) the Ki was 0.55 µM, the IC50 was 1.28 µM and the “Residual activity of chymotrypsin” value (peptide 0.001 μM) was 103.2 ± 0.9%. For the same compound, the “Residual activity of chymotrypsin” value (peptide 0.01 μM) was 101.8 ± 0.8%, the “Residual activity of chymotrypsin” value (peptide 0.1 μM) was 100.7 ± 2.0% and the “Residual activity of chymotrypsin” value (peptide 0.3 μM) was 86.7 ± 1.4%. For the same compound, the “Residual activity of chymotrypsin” value (peptide 0.6 μM) was 70.4 ± 2.8%, the “Residual activity of chymotrypsin” value (peptide 2.5 μM) was 34.6 ± 4.3% and the “Residual activity of chymotrypsin” value (peptide 7.5 μM) was 13.8 ± 0.6%. For the same compound, the “Residual activity of chymotrypsin” value (peptide 10 μM) was 9.3 ± 1.1%, the “Residual activity of chymotrypsin” value (peptide 100 μM) was 0.7 ± 0.1% and the “Residual activity of chymotrypsin” value (peptide 1000 μM) was 0.2 ± 0.0%.

With CC[C@H](C)[C@@H]1NC(=O)[C@H](CO)NC(=O)[C@H](Cc2ccc(O)cc2)NC(=O)[C@H]([C@@H](C)O)NC(=O)CNC(=O)[C@H](CO)NC(=O)CNC(=O)[C@@H](N)CSSC[C@@H](C(=O)N[C@@H](Cc2ccc(O)cc2)C(=O)NCC(=O)O)NC(=O)[C@H](CCC(N)=O)NC(=O)[C@@H]2CCCN2C(=O)[C@@H]2CCCN2C1=O [CH6] (H-CGSGTYSIPPQCYG-OH; disulfide 1-12; N-terminus and C-terminus assumed) the IC50 was over 50 µM.

In the case of CC[C@H](C)[C@@H]1NC(=O)[C@H](CO)NC(=O)[C@H](Cc2ccccc2)NC(=O)[C@H]([C@@H](C)O)NC(=O)CNC(=O)[C@H](Cc2ccccc2)NC(=O)CNC(=O)[C@@H](N)CSSC[C@@H](C(=O)N[C@@H](Cc2ccc(O)cc2)C(=O)NCC(=O)O)NC(=O)[C@H](CCC(N)=O)NC(=O)[C@@H]2CCCN2C(=O)[C@@H]2CCCN2C1=O [CH7] (H-CGFGTFSIPPQCYG-OH; disulfide 1-12; N-terminus and C-terminus assumed), the “inhibitory activity against chymotrypsin (in words)” value (“inhibitory activity” below) is reported as “certain inhibitory activity against chymotrypsin”, the Ki is reported as 9.65 µM and the IC50 is reported as 22.3 µM. For the same compound, the “Residual activity of chymotrypsin” value (peptide 0.01 μM) was 100.9 ± 1.3%, the “Residual activity of chymotrypsin” value (peptide 0.1 μM) was 98.8 ± 3.9% and the “Residual activity of chymotrypsin” value (peptide 1 μM) was 101.7 ± 6.3%. The “Residual activity of chymotrypsin” value (peptide 10 μM) was 77.7 ± 2.0%, the “Residual activity of chymotrypsin” value (peptide 25 μM) was 46.0 ± 1.0% and the “Residual activity of chymotrypsin” value (peptide 50 μM) was 25.8 ± 0.9%. The “Residual activity of chymotrypsin” value (peptide 100 μM) was 14.1 ± 0.9%, the “Residual activity of chymotrypsin” value (peptide 300 μM) was 4.1 ± 0.1% and the “Residual activity of chymotrypsin” value (peptide 1000 μM) was 1.2 ± 0.1%.

In the case of CC[C@H](C)[C@@H]1NC(=O)[C@H](CO)NC(=O)[C@H](Cc2ccc(O)cc2)NC(=O)[C@H]([C@@H](C)O)NC(=O)[C@H](C)NC(=O)[C@H](CO)NC(=O)[C@@H](N)CSSC[C@@H](C(=O)N[C@@H](Cc2ccc(O)cc2)C(=O)O)NC(=O)[C@H](CCC(N)=O)NC(=O)[C@@H]2CCCN2C(=O)[C@@H]2CCCN2C1=O [CH8] (H-CSATYSIPPQCY-OH; disulfide 1-11; N-terminus and C-terminus assumed), the IC50 is reported as over 50 µM.

For CC[C@H](C)[C@@H]1NC(=O)[C@H](CO)NC(=O)[C@H](Cc2ccc(O)cc2)NC(=O)[C@H]([C@@H](C)O)NC(=O)[C@H](C)NC(=O)[C@H](CO)NC(=O)CNC(=O)[C@@H](N)CSSC[C@@H](C(=O)N[C@@H](Cc2ccc(O)cc2)C(=O)O)NC(=O)[C@H](CCC(N)=O)NC(=O)[C@@H]2CCCN2C(=O)[C@@H]2CCCN2C1=O [CH9] (H-CGSATYSIPPQCY-OH; disulfide 1-12; N-terminus and C-terminus assumed), the “inhibitory activity” value was “certain inhibitory activity against chymotrypsin”, the Ki was 12.3 µM and the IC50 was 28.4 µM.

CC[C@H](C)[C@@H]1NC(=O)[C@H](CO)NC(=O)[C@H](Cc2ccccc2)NC(=O)[C@H]([C@@H](C)O)NC(=O)[C@H](C)NC(=O)[C@H](Cc2ccccc2)NC(=O)CNC(=O)[C@@H](N)CSSC[C@@H](C(=O)N[C@@H](Cc2ccc(O)cc2)C(=O)NCC(=O)O)NC(=O)[C@H](CCC(N)=O)NC(=O)[C@@H]2CCCN2C(=O)[C@@H]2CCCN2C1=O [CH12] (H-CGFATFSIPPQCYG-OH; disulfide 1-12) gave an IC50 of over 50 µM.

CC[C@H](C)[C@@H]1NC(=O)[C@H](CO)NC(=O)[C@H](Cc2ccccc2)NC(=O)[C@H]([C@@H](C)O)NC(=O)[C@H](C)NC(=O)[C@H](CO)NC(=O)CNC(=O)[C@@H](N)CSSC[C@@H](C(=O)N[C@@H](Cc2ccc(O)cc2)C(=O)NCC(=O)O)NC(=O)[C@H](CCC(N)=O)NC(=O)[C@@H]2CCCN2C(=O)[C@@H]2CCCN2C1=O [CH13] (H-CGSATFSIPPQCYG-OH; disulfide 1-12; N-terminus and C-terminus assumed) was tested, and the “inhibitory activity” value was “good inhibitory activity”, the Ki was 2.43 µM and the IC50 was 5.62 µM.

CC[C@H](C)[C@@H]1NC(=O)[C@H](CO)NC(=O)[C@H](Cc2ccc(O)cc2)NC(=O)[C@H]([C@@H](C)O)NC(=O)[C@H](C)NC(=O)[C@H](Cc2ccccc2)NC(=O)CNC(=O)[C@@H](N)CSSC[C@@H](C(=O)N[C@@H](Cc2ccc(O)cc2)C(=O)NCC(=O)O)NC(=O)[C@H](CCC(N)=O)NC(=O)[C@@H]2CCCN2C(=O)[C@@H]2CCCN2C1=O [CH14] (H-CGFATYSIPPQCYG-OH; disulfide 1-12) showed an IC50 of over 50 µM.
